Reference: patent publication US20220241227A1, “COMPOSITIONS COMPRISING HDAC INHIBITORS AND RETINOIDS” (The Regents of The University of California, priority 2019, published 2022)
Like-named read-outs stand apart in the source and are kept apart here.

Assays:
miR-22 [1] = assay: miR-22 induction in HCT116 cells; assay type: cell-based; conditions: RA 10 μM, SAHA 5 μM, butyrate 5 mM, propionate 10 mM, valerate 10 mM
From the text: Mean±SD, *p<0.05; **p<0.01; ***p<0.0001 vs. DMSO control, #p<0.05 vs. single agent treatment.

miR-22 [2] = conditions: published data, cells not given; cited from earlier work
Swiss mice = conditions: oral; cited from earlier work
RARβ = RARβ mRNA and protein levels in HCT116 cells; assay type: cell-based; conditions: 48 hrs, RA 10 μM, butyrate 5 mM, SAHA 5 μM
[3] = test system: colon tumors in xenograft models; conditions: combination: RA 0.025 mg/g and butyrate 1.2 mg/g, intraperitoneal, 5 times/week, 2 weeks; cited from earlier work
HDAC1, HDAC4, and SIRT1 = conditions: liver cancer Huh7 and colon cancer HCT116 cells, published data; cited from earlier work

Compound	miR-22 induction (miR-22 [1])	miR-22 induction (miR-22 [2])	also measured
O=C(CCCCCCC(=O)Nc1ccccc1)NO [SAHA, suberanilohydroxamic acid]	induced	induces miR-22	
CCCCC(=O)O [valerate]	induced	induce miR-22	
CC1=C(/C=C/C(C)=C/C=C/C(C)=C/C(=O)O)C(C)(C)CCC1 [RA, all-trans retinoic acid]	induced		LD50 (Swiss mice): 1.1 mg/g
CC(=O)O [acetate]	unable to induce miR-22		
EGF: promotes growth and does not has HDAC inhibitory effect (NSDSECPLSHDGYCLHDGVCMYIEALDKYACNCVVGYIGERCQYRDLKWWELR; Epidermal growth factor; UniProt P01133 971-1023, looked up)			RARβ expression (mRNA and protein) (RARβ): did not induce RARβ
O=CO [formate]	unable to induce miR-22		
CCC(=O)O [propionate]	induced	induce miR-22	
miR-22: tumor suppressor microRNA, SEQ ID NO:1 (AAGCUGCCAGUUGAAGAACUGU; listed as RNA, chemistry not fully specified; listed as Homo sapiens)			treatment of colon tumors in xenograft models [3]: effective in treating colon tumors; HDAC1, HDAC4, and SIRT1 levels (HDAC1, HDAC4, and SIRT1): reduced
